Columns and labels:
[1] = target: T1, S. aureus FtsZ (Staphylococcus aureus, UniProt P0A031); test: Light scattering assay of FtsZ polymerization; assay type: biochemical; details: for inhibition of polymerization in the presence of Triton X-100: 0.01% Triton X-100, berberine 200 and 500 µM, compound 2 10 and 25 µM
T1 construct: made in house; host or cells: E. coli BL21(DE3)
T1 sequence (P0A031 1-390): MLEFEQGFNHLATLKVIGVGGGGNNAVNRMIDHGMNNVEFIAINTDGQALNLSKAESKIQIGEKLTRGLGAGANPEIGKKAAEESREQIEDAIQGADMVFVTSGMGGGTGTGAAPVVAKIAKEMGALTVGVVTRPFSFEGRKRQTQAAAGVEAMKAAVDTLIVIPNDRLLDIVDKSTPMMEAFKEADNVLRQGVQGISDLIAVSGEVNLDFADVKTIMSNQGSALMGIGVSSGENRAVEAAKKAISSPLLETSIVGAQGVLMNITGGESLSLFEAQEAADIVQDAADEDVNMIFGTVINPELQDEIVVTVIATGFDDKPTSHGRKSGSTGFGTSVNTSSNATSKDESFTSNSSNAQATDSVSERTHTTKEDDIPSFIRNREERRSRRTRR
Description: (§1) E. coli BL21(DE3) cells were transformed with the pRSET-A-S vector carrying S. aureus FtsZ with a 6-histidine tag attached at its N-terminus under the control of a T7 promoter. […] When the OD600 reached 0.8, protein expression was induced with 0.4 mM isopropyl-β-D-thiogalactopyranoside (IPTG) for 4 h. Cells were harvested by centrifugation at 9000 rpm for 20 min at 4°C. The cell pellet was resuspended in 20 mL of solubilization buffer (50 mM Tris-HCl, 150 mM NaCl, 1 mM PMSF and 1 mM EDTA, pH 7.4) and then lysed with 1 mg/mL of lysozyme. The mixture was incubated for 1 h on ice. The cells were disrupted by sonication and the crude lysate obtained was centrifuged at 13,000 rpm for 1 h at 4°C. The supernatant containing 6-histidine tagged S. aureus FtsZ was collected and loaded onto a nickel charged HiTrap chelating column pre-equilibrated with starting buffer (20 mM sodium phosphate buffer, 0.5 M NaCl, pH 7.4). The column was then washed with 8 column volumes of the starting buffer to remove the unbound proteins, and the histidine-tagged enzyme was eluted by a linear gradient of 0−0.2 M imidazole. Fractions containing S. aureus FtsZ were pooled, buffer-exchanged with 20 mM NH4HCO3 (pH 8.0) at 4°C, lyophilized, and stored at −20°C. A stock solution of S. aureus FtsZ for the subsequent bioassay was prepared from the lyophilized powder.
The light scattering assay was performed using a protocol adapted from the literature. The polymerization and depolymerization of recombinant S. aureus FtsZ was measured using 90° light scattering in a thermostatically (37°C) controlled fluorescence spectrometer (Perkin Elmer, USA). Both excitation and emission wavelengths were set to 600 nm with a slit width of 2.5 nm. S. aureus FtsZ (6 µM) in 50 mM of MOPS buffer (pH 6.5) was incubated with vehicle (1% DMSO) or different concentrations of the test compound for 10 min at 25°C. 50 mM KCl and 10 mM MgCl2 were then added to establish a baseline. After 8 min, a final concentration of 1 mM GTP was added at the last fraction and the increase in light scattering was measured for an additional 2000s. The rate and extent of polymerization were measured. Appropriate blanks were subtracted from all experimental data. Moreover, in order to rule out unselective inhibition by formation of aggregates, control experiments with 0.01% (v/v) Triton X-100 from a freshly prepared 1% (v/v) stock solution were performed for berberine and compound 2 [40], [41]. Reported results are the average of three independent experiments.

[2] = target: T1, S. aureus FtsZ; test: Transmission electron microscopy of FtsZ polymers; assay type: biochemical; details: FtsZ 12 µM, TEM
Description: as §1, with “powder. […]” for “powder.”

[3] = test system: Gram-positive bacteria, including methicillin-resistant S. aureus and vancomycin-resistant E. faecium; test: Antimicrobial susceptibility assay, summary over Gram-positive bacteria; assay type: cell-based; details: Staphylococcus aureus; Gram-positive bacteria incl. MRSA and VREF
Source text: The bacterial strains S. aureus ATCC 29213, S. aureus ATCC 29247, S. aureus ATCC BAA-41, E. faecium ATCC 49624, E. faecium ATCC 700221, E. faecalis ATCC 29212, S. epidermidis ATCC 12228, E. coli ATCC 25922, and K. pneumoniae ATCC BAA-1144 used in the antimicrobial susceptibility assays were purchased from American Type Culture Collection (ATCC, USA). B. subtilis strain 168 was already available in our in-house collection. E. coli JM109 WM647 was kindly provided by Dr. W. Margolin (University of Texas-Houston Medical School). FM 4–64 was purchased from Invitrogen (Eugene, Oregon). All other chemicals and reagents were purchased from Sigma-Aldrich. Stock solutions were prepared in DMSO. The final percentage of DMSO in the assays was 1% (v/v) for all experiments.
Antimicrobial susceptibility tests were conducted in 96-well microplates using the broth microdilution procedure described in the Clinical and Laboratory Standards Institute (CLSI) guidelines. […] After incubation for 18 h at 37°C, the absorbance at 600 nm (A600) was recorded using a microplate reader (Bio-Rad laboratory Ltd., UK) and the percentage of bacterial cell inhibition with respect to vehicles (1% DMSO) was calculated. […]

[4] = test system: GFP-tagged FtsZ in E. coli JM109 WM647; test: Z-ring visualization in E. coli cells; assay type: cell-based; details: 48 µM compound, 4 h at 37°C
Description: A culture of E. coli JM109 WM647 containing the IPTG-inducible plasmid for the overexpression of green fluorescence protein (GFP)-tagged FtsZ was grown in LB medium supplemented with 30 µg/mL of chloramphenicol. After overnight incubation, a sample of the culture was diluted to 1% in the LB medium containing different concentrations of the test compound and 40 µM of IPTG. After 4 h incubation at 37°C, the E. coli cells were fixed, harvested and resuspended in PBS buffer containing 0.25% of agarose. 10 µL of sample mixture were added to a pretreated microscopic slide with 0.1% (w/v) poly-L-lysine and visualized using a fluorescence microscope at 60× oil immersion magnification with a standard FITC filter set. The images were captured using an Olympus Bio Imaging Navigator FSX 100 microscope.

Row | SMILES | inhibition at 200 µM ([1]; 200 µM compound, FtsZ 6 µM, 1 mM GTP, light scattering) [%] | inhibition of polymerization in the presence of Triton X-100 [1] | reduction of the thickness of the bundles of FtsZ protofilaments ([2]; 8.8 µM compound) [%] | reduction of the thickness of the bundles of FtsZ protofilaments ([2]; 4 µM compound) [%] | inhibition of S. aureus FtsZ polymerization at increasing concentrations ([1]; 10 µM, 25 µM and 50 µM compound) | inhibition at 50 µM ([1]; 50 µM compound, FtsZ 6 µM, 1 mM GTP, light scattering) [%] | MIC [3] [µg/mL] | Z-ring formation / localization of GFP-tagged FtsZ [4]
1 | COc1ccc2cc3[n+](cc2c1OC)CCc1cc2c(cc1-3)OCO2 [Berberine, Berberine chloride] | ~30 | maintained |  |  |  |  |  | 
2 | COc1ccc2cc3[n+](cc2c1OCCCOc1ccccc1)CCc1cc2c(cc1-3)OCO2 [Compound 1] |  |  | 60 |  |  |  |  | 
3 | COc1ccc2cc3[n+](cc2c1OCCCOc1ccc(Cl)cc1)CCc1cc2c(cc1-3)OCO2 [Compound 2] |  | maintained |  | 70 | strongly inhibited the S. aureus FtsZ polymerization in a dose-dependent manner | ~70 | 2 to 4 | caused mislocalization of the FtsZ protein
